For one assay, the target named is DCAF15/RBM39 (Homo sapiens, UniProt Q14498+Q66K64). The assay is described as follows: AlphaLISA compound-induced DCAF15-RBM39 ternary complex formation. It counts as binding. The following applies: His-tagged DCAF15 complex and biotin-carrying RBM39. A digest of the protocol:
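Compounds, serially diluted 3-fold from 2 mM DMSO stocks, were incubated 1 h at room temperature with His-tagged DCAF15 complex and biotinylated RBM39 (mixture at 408 nM each, 2.04×). The buffer was 50 mM HEPES pH 7.5, 100 mM NaCl, 2 mM MgCl2, 2 mM TCEP. Ni-chelate acceptor and streptavidin donor beads were added sequentially (1–2 h each), and the AlphaLISA signal was titrated.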

In another assay the target is DCAF15 (Homo sapiens, UniProt Q66K64). The assay is described as follows: HTRF competition assay, binary interaction between compounds and DCAF15. It is filed as binding. As to conditions: competition with Alexa Fluor 647 tracer, His-tagged DCAF15 complex. A digest of the protocol: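 Compounds, 3-fold serially diluted in DMSO, competed with an Alexa Fluor 647 tracer (612 nM, 2.04× stock) for His-tagged DCAF15 complex (32 nM, 4× stock) premixed 15 min with anti-6His-Eu cryptate. Buffer was 25 mM HEPES pH 7.5, 100 mM NaCl, 0.5 mM TCEP. After 1 h at RT, the 615/666 nm ratio gave titration curves.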
(In general: Time-resolved FRET reads energy transfer from a long-lived donor to a nearby acceptor.)

In the next assay the target is T1, RBM39 (Homo sapiens, UniProt Q14498+Q66K64).
T1 construct: endogenous in cells; host or cells: HCT116
The assay is described as follows: Western blot assay for degradation of RBM39 in HCT116 cells. It counts as cell-based. As to conditions: HCT-116, numeric values. The protocol: HCT116 cells were used with passage numbers ranging from 13 to 25. Cells were seeded in 12-well plated at a density of 1 million cells per well in 1 mL cell culture medium containing McCoy's 5A medium (Cat. #16600082, ThermoFisher, Waltham, MA), 10% Fetal Bovine Serum (Cat. #26140, ThermoFisher, Waltham, MA) and 1% Pen-Strep (Cat. #. 15070063, ThermoFisher, Waltham, MA) and incubated overnight. The next morning, compounds were serially diluted (1:3, 9 points) in the medium separately and were prepared 2× the final assay concentration. Subsequently, 1.0 mL medium containing DMSO or the appropriate concentration of each compound was added to respective wells. The final DMSO concentration in each well was 0.1%. After 24 hour incubation with compounds, cell were harvested (approximately 90-100% confluency at the time of harvest). […] Lysates were then sonicated in a sonication bath (3 pulses of 10 sec each with 1 min incubation on ice between each pulse). Samples were then centrifuged for 20 min at 14,000 rpm for 20 min. Supernatants were then transferred to fresh microfuge tubes and stored frozen at −80° C. until use. Total protein quantitation in lysate samples was done using the BCA protein quantitation kit following the manufacturer's instructions. For polyacrylamide gel electrophoresis, each sample (15-30 […]), was diluted with Laemmli sample buffer (Cat. #. 1610747, BioRad, Hercules, CA) by adding 9 ul of lysate to 3 ul of sample buffer containing 10% β-mercaptoethanol. Samples were then denatured at 95° C. for 5 minutes in a heat block, centrifuged at 14,000 rpm for 5 min, and placed on ice. Subsequently, 12 ul of each sample was loaded on 4-20% Tris/Glycine gels and electrophoresed in 1×Tris/Glycine SDS buffer at 80 (constant) volts for 2 h. Resolved samples were then transferred from gels to PVDF membrane using the BioRad Turbo-transfer unit with the Turbo default program (Cat. #. 1704150EDU, BioRad, Hercules, CA). For immunoblotting, membranes were first blocked for 1 hour at room temperature using Odyssey Blocking Buffer (Cat. #: 927-60001, Li-cor, Lincoln, NE) with continuous rocking. Membrane was then incubated with primary antibodies, anti-RBM39 (Sigma Cat. #: HPA001591, St. Louis, MO) and anti-β-actin (Cell Signaling Cat. #3700S, Danvers, MA), diluted 1000 fold each, at 4° C. for overnight. […] Band intensity in images was quantified using the Image Studio Lite software (Version 5.2). Signal intensity for RBM-39 specific bands were normalized using the signal intensity for β-actin-specific band, and percent degradation was assessed by comparing RBM39 signal in compound-treated vs. DMSO-treated samples.
Background: A western blot detects proteins with antibodies after separation by electrophoresis.

The structures appear in SMILES notation.

The EC50 is the concentration that produces a half-maximal response. A higher EC50 goes with a less potent agent. As usually defined, the IC50 is the point on the concentration scale where inhibition reaches its midpoint. A lower IC50 goes with higher potency. As usually defined, the Dmax is the greatest extent of degradation seen.

T1 sequence (Q66K64 whole entry): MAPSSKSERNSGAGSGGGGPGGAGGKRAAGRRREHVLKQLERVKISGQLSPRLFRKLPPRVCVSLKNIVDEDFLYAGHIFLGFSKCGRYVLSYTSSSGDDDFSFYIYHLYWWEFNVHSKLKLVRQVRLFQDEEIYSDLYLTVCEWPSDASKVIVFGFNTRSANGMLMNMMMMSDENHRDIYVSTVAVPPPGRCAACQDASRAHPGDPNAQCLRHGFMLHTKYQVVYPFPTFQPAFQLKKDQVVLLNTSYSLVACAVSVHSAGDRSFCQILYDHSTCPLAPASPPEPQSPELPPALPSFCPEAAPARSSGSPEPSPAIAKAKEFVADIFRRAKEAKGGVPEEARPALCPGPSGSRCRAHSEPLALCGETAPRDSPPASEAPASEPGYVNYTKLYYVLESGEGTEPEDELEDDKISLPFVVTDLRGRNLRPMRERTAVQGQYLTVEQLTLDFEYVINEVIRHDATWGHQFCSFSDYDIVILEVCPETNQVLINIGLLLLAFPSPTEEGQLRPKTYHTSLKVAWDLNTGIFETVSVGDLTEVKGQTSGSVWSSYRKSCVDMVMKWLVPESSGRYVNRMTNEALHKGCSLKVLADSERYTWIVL
T1 sequence (Q14498 2-530): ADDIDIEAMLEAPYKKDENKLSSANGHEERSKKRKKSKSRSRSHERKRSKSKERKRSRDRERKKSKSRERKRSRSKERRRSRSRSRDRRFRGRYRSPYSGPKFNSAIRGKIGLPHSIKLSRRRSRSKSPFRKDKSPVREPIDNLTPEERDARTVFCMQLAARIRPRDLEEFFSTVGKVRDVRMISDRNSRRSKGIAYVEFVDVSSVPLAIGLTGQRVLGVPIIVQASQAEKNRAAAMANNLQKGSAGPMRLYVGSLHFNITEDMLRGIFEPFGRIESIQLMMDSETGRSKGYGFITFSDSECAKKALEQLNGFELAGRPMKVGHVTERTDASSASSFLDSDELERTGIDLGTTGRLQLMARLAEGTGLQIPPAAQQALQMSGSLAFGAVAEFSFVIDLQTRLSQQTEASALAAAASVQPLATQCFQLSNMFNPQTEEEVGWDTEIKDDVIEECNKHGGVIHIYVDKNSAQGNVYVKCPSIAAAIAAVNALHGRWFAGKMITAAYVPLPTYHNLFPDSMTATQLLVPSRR
T1 sequence (Q16531 whole entry, further chain): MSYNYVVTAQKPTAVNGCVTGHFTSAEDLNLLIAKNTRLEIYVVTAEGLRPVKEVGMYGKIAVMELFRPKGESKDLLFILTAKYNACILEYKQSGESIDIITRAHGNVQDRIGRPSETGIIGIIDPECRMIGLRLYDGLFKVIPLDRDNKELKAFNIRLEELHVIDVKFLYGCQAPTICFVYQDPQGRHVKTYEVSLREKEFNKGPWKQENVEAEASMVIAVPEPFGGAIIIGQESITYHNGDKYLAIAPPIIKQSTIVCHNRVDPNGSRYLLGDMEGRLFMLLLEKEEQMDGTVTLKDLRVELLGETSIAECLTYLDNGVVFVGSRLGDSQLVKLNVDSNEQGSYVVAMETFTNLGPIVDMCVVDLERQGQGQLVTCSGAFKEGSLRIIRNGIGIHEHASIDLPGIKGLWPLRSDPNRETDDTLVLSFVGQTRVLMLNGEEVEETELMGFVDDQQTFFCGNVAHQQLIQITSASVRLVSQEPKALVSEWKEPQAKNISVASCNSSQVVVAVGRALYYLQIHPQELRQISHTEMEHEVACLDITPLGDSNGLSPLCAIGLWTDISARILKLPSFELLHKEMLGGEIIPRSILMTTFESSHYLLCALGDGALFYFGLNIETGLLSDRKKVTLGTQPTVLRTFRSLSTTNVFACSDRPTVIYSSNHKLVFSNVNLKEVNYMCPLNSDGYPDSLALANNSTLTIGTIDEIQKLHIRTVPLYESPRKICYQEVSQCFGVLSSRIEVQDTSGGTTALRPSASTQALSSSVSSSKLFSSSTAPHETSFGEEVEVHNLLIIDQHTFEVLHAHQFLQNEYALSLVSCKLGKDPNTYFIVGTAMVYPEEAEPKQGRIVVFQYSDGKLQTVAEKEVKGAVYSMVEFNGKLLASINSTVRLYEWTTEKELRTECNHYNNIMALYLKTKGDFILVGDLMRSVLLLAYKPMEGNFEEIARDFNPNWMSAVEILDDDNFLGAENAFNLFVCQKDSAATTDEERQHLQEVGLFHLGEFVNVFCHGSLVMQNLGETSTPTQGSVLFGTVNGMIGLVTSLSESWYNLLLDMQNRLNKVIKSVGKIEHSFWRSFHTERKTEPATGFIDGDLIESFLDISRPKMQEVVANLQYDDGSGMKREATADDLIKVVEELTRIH

`O=C(COc1ccc(S(=O)(=O)Nc2ccc(Cl)c3c(Cl)c[nH]c23)cc1)NC1CC1` [Compound 39] had an EC50 on DCAF15/RBM39 of less than 1 µM. Further, the half-inhibitory concentration (IC50) at DCAF15 was more than 100 µM. The same compound gave a Dmax on RBM39 of 97.6%.

Take `O=C(NC1CC1)c1ccc(S(=O)(=O)Nc2ccc(Cl)c3c(Cl)c[nH]c23)cc1` [Compound 153]: the 50% effective concentration (EC50) at DCAF15/RBM39 is less than 1 µM. At DCAF15, this compound had an IC50 of 1 to 10 µM. Besides, the Dmax on RBM39 was determined as 94.8%.

Turning to `O=C(c1cccc(S(=O)(=O)Nc2ccc(Cl)c3c(Cl)c[nH]c23)c1)N1CCOCC1` [Compound 218], the concentration for a half-maximal effect (EC50) on DCAF15/RBM39 is less than 1 µM. This compound also yielded an IC50 at DCAF15 of 1 to 10 µM. Besides, the Dmax on RBM39 worked out at 100%.

In turn, `CCS(=O)(=O)CCOc1ccc(S(=O)(=O)Nc2ccc(Cl)c3c(Cl)c[nH]c23)cc1` [Compound 71] came in with a concentration giving a half-maximal response (EC50) at DCAF15/RBM39 of 1 to 10 µM. At DCAF15, the IC50 was in the range of 1 to 10 µM. At RBM39, this compound gave a Dmax of 100%.

The compound `CN1CC2(CC(Oc3ccc(S(=O)(=O)Nc4ccc(Cl)c5c(Cl)c[nH]c45)cc3)C2)C1` [Compound 24, N-(3,4-dichloro-1H-indol-7-yl)-4-((2-methyl-2-azaspiro[3.3]heptan-6-yl)oxy)benzenesulfonamide] yielded an EC50 on DCAF15/RBM39 of less than 1 µM. The compound further registered a concentration for half-maximal inhibition (IC50) on DCAF15 of 1 to 10 µM.

On to `CNCCCCCCOc1ccc(S(=O)(=O)Nc2ccc(Cl)c3c(Cl)c[nH]c23)cc1` [Compound 148], for which, at DCAF15/RBM39, the EC50 was less than 1 µM. Moreover, the IC50 on DCAF15 was 1 to 10 µM.

Turning to `O=C1CC[C@H](NC(=O)c2cccc(S(=O)(=O)Nc3ccc(Cl)c4c(Cl)c[nH]c34)c2F)CN1` [Compound 156], at DCAF15/RBM39, the EC50 is less than 1 µM. On DCAF15, this compound displayed a half-maximal inhibitory concentration (IC50) of 1 to 10 µM.

On DCAF15/RBM39, `NC1CCC(Oc2ccc(S(=O)(=O)Nc3ccc(Cl)c4c(Cl)c[nH]c34)cc2)CC1` (stereo not shown) [Compound 3] yielded a concentration giving a half-maximal response (EC50) of less than 1 µM. For the same compound, the IC50 on DCAF15 fell in the range of 1 to 10 µM.

Compound `Cc1ccnc([C@@H](NC(=O)c2ccc(S(=O)(=O)Nc3ccc(Cl)c4c(Cl)c[nH]c34)c(F)c2)C2CC2)c1` [Compound 180] registered an EC50 at DCAF15/RBM39 of 1 to 10 µM. The compound also gave an IC50 on DCAF15 of 1 to 10 µM.

The compound `Cc1nc(-c2ccc(COc3ccc(S(=O)(=O)Nc4ccc(Cl)c5c(Cl)c[nH]c45)cc3)cc2)no1` [Compound 64] registered an EC50 at DCAF15/RBM39 of more than 100 µM. Moreover, the concentration for half-maximal inhibition (IC50) at DCAF15 is more than 100 µM.

`COCCOc1ccc(S(=O)(=O)Nc2ccc(Cl)c3c(Cl)c[nH]c23)cc1Br` [Compound 231] had a concentration for a half-maximal effect (EC50) at DCAF15/RBM39 of 1 to 10 µM. The same compound displayed an IC50 on DCAF15 of 1 to 10 µM.

`O=C(NCCCOCc1ccccc1)c1ccc(S(=O)(=O)Nc2ccc(Cl)c3c(Cl)c[nH]c23)c(F)c1` [Compound 205] registered an EC50 at DCAF15/RBM39 of less than 1 µM. For the same compound, the IC50 at DCAF15 was more than 100 µM.

The values above are taken from patent US20240327351A1, “AMIDE AND ETHER SUBSTITUTED N-(1H-INDOL-7-YL)BENZENESULFONAMIDES AND USES THEREOF” (TRIANA BIOMEDICINES, INC., priority 2021, published 2024).
